Test system: TAS1R1/TAS1R3 variants
Experiment: Ca2+ imaging (FlexStation II), comparison across receptor variants (AR, TR, AC, TC)
Format: cell-based, human
Conditions: MSG alone
Source text: Intronless human TAS1Rs and Gαl6 expression constructs were generated in the pEF-DEST51 Gateway vector (Invitrogen) by genomic DNA-based methods. To subclone each gene into the vector, a Kozak cassette was introduced at the 5′ end before the start codon. Gαl6 chimeras were generated by PCR with mutagenic primers. The carboxyl-terminal tail of Gαl6, five-residue (EINLL) was replaced by its counterpart from Gαi3 (ECGLY; Gα16-i3), Gαgust (DCGLF; Gα16-gust), and Gα16-gust44 was generated as described. The integrity of all DNA constructs was confirmed by DNA sequencing. Point mutations in TAS1Rs were made using the same overlapping PCR strategy with mutagenic primers.
HEK293 cells were cultured at 37°C under a humidified atmosphere containing 5% CO2 in Dulbecco's modified Eagle's medium supplemented with 10% fetal bovine serum. To obtain reproducible Ca^2+ responses, cells were split every 2 days before cells become confluent. Cells were discarded after 2 months of passages and new cells were prepared from frozen-stock. For calcium imaging experiments, cells were seeded onto a 35 mm recording chamber or poly-D-lysine coated 96-well black-wall, clear-bottom recording plates. After 24 hrs at 37°C, confluent cells (60∼70%) were washed in OptiMEM medium supplemented with GlutaMAX-I (invitrogen) and plasmid DNAs were transiently cotransfected into HEK293 cells using Lipofectamine2000 regent (invitrogen) (2.0 µl per 1.0 µg DNA). […]
Student's t-test was used for detection of differences in the mean recognition thresholds between males and females. […] The mean values (the center±S.E. of gaussian curve on X-axis) in the distribution of recognition thresholds defined by TAS1R1/TAS1R3 haplotypes (TAS1R1-372A/TAS1R3-757R homozygotes, TAS1R1-372T/TAS1R3-757R homozygotes, homo- and heterozygotes containing TAS1R3-757C) were calculated using gauss fit function of Origin 5.0 (OriginLab Corp). For Ca^2+ imaging analysis, data were normalized to response to 10 µM ISO, and mean values (±S.E.) were calculated from 10∼18 independent analyses.

N[C@@H](CCC(=O)O)C(=O)[O-].[Na+] [MSG, monosodium glutamate]
more sensitive responses (EC50 comparison) of 372T/757R (TR) compared to the other variants (AR, AC and TC): about 1.5 fold
EC50 (the other variants (AR, AC and TC)): 27.6 to 32.2 mM

From PMC2725291, “Genetic and Molecular Basis of Individual Differences in Human Umami Taste Perception” (PLoS ONE, 2009)
